Results on one compound are retold here after patent US9573921B2, “Substituted N, N-dimethylaminoalkyl ethers of isoflavanone oximes as H1-receptor antagonists” (POLFARMEX S.A., priority 2013, dated 2017).

In this experiment the target is T1, H3 (Cavia porcellus, UniProt Q9JI35).
T1 construct: Whole jejunum segments (2 cm) were prepared and mounted between two platinum electrodes; from tissue; host or cells: guinea pig jejunum (small intestine, 20-50 cm proximal to the ileocaecal valve)
The experiment can be described thus: H3 antagonistic effects in vitro, electrically stimulated guinea pig jejunum, versus (R)-α-methylhistamine. The conditions noted are these: (R)-α-methylhistamine as H3-agonist, pyrilamine 1·10^-5 mol/L present, Schild regression, read-out: pA2 (H3-antagonistic activity) (converted). It is filed as cell-based. How it is done:
Selected compounds were tested for H3 antagonistic effects in vitro, following standard methods, using the guinea pig ileum (R. C. Vollinga, O. P. Zuiderveld, H. Scheerens, A. Bast, H. Timmerman, Meth. Find. Exp. Cli. Pharmacol. 1992, 105, 747-751). Male guinea pigs weighing 300-400 g were sacrificed by a blow on the head. A portion of the small intestine, 20-50 cm proximal to the ileocaecal valve (jejunum), was removed and placed in Krebs buffer (composition (mM) NaCl 118; KCl 5.6; MgSO4 1.18; CaCl2 2.5; NaH2PO4 1.28; NaHCO3 25; glucose 5.5 and indomethacin (1 10^−6 mol/L)). […] Contractions were recorded isotonically under 1.0 g tension with Hugo Sachs Hebel-Messvorsatz (T1-2)/HF-modem (Hugo Sachs Electronik, Hugstetten, Germany) connected to a pen recorder. […] After 30 min of stimulation, five minutes before adding (R)-α-methylhistamine, pyrilamine (1.10^−5 mol/L concentration in organ bath) was added, and then cumulative concentration-response curves (half-log increments) of (R)-α-methylhistamine, H3-agonist, were recorded until no further change in response was found. Five minutes before adding the tested compounds, the pyrilamine (1 10^−5 mol/L concentration in organ bath) was added, and after 20 minutes cumulative concentration-response curves (half-log increments) of (R)-α-methylhistamine, H3-agonist, were recorded until no further change in response was found. […]

T1 sequence (Q9JI35 whole entry): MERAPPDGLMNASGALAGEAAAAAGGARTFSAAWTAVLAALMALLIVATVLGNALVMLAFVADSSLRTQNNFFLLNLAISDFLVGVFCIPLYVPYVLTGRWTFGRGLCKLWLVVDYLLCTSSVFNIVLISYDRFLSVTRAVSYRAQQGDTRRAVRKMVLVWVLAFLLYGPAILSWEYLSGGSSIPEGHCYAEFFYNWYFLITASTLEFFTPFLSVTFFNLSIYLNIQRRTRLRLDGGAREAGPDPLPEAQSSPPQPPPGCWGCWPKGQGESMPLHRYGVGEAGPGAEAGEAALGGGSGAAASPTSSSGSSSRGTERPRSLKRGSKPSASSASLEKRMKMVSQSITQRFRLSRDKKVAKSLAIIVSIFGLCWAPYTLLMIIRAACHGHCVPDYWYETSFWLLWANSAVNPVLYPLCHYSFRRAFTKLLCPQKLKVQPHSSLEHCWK

Turning to `S=C(NC1CCCCC1)N1CCC(c2cnc[nH]2)CC1` [thioperamide], the Kb was 2.14 nM.
